These are literature values, as cited in publication PMC6370995, “Phase I study of PF‐04895162, a Kv7 channel opener, reveals unexpected hepatotoxicity in healthy subjects, but not rats or monkeys: clinical evidence of disrupted bile acid homeostasis” (Pharmacology Research & Perspectives, 2019).

Data set [1] has as its system patients. Further details: method as in PMID 27178047. Particulars: 50 mg once daily, Phase 3 clinical study; cited from earlier work.
Data set [2] relates to BSEP. Further details: method as in PMID 11309550. As to conditions: cited from earlier work.

Regarding `Cc1cc(OCCCS(C)(=O)=O)cc(C)c1-c1cccc(COc2ccc3c(c2)OC[C@H]3CC(=O)O)c1` [TAK‐875], in data set [1], the clinical liver finding result is on record as “clinical hepatotoxicity in a small number of patients”.

With `COc1ccccc1Oc1c(NS(=O)(=O)c2ccc(C(C)(C)C)cc2)nc(-c2ncccn2)nc1OCCO` [bosentan], the BSEP inhibition potency in data set [2] is listed as ~ 12 μmol/L.
